According to PubChem BioAssay AID463199 (Broad Institute, 2010):
Activity calls are given as the source filed them.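 Rule for the calls: active = AC50, the dose giving half-maximal effect, exceeds a fixed cutoff for a compound that rescues yeast growth under heat; inactive = the rest, inconclusive results apart.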

Tested on: S. cerevisiae Burl-1 ts mutant growth, BacTiter-Glo, 38.5C 24 h
Test: restored growth of temperature-sensitive Burl-1 yeast – whole organism, S. cerevisiae, Burl-1 ts mutant, luminescence, counter-screen for SUMOylation pathway inhibitor project, dose response (AID 463199)

SMILES: CCOc1ccc(CN(C)C(C)C(=O)NCc2ccccc2)cc1 (stereo unspecified)
- AC50: > 42 µM (inactive)

SMILES: Fc1cccc(F)c1-c1nc(-c2ccncc2)no1
- AC50: > 42 µM (inactive)

SMILES: Cn1c(C(=O)NCCc2ccsc2)cc2c(=O)n(C)c3ccccc3c21
- AC50: > 42 µM (inactive)

SMILES: CCS(=O)(=O)N1CCC(C(=O)NCCCN2CCN(c3ccccc3F)CC2)CC1
- AC50: > 42 µM (inactive)

SMILES: O=C(Cc1cccs1)Nc1cccc(-c2nnc(-c3ccco3)o2)c1
- AC50: > 42 µM (inactive)

SMILES: CCOc1ccc(S(=O)(=O)N2CCN(CC(O)COc3cccc([N+](=O)[O-])c3)CC2)cc1 (stereo unspecified)
- AC50: > 42 µM (inactive)

SMILES: COc1ccc(OCC(O)CN2C(=O)NC(C)(C)C2=O)cc1 (stereo unspecified)
- AC50: > 42 µM (inactive)

SMILES: Cc1cnc(=O)[nH]c1SCC(=O)c1ccc(F)cc1
- AC50: > 42 µM (inactive)

SMILES: CN(CC(=O)Nc1cccc(F)c1)CC(=O)Nc1cccc(S(N)(=O)=O)c1
- AC50: > 42 µM (inactive)

SMILES: COc1ccc(N2CCN(C3CCCN(Cc4cccc(OC)c4)C3)CC2)cc1 (stereo unspecified)
- AC50: > 42 µM (inactive)

SMILES: CC(C)(C)Cc1nc(-c2ccccn2)no1
- AC50: > 42 µM (inactive)

SMILES: N/C(=N\OC(=O)CCC1CCCC1)c1ccc([N+](=O)[O-])cc1
- AC50: > 42 µM (inactive)

SMILES: O=C(c1ccccc1F)N1CCCc2ccccc21
- AC50: > 42 µM (inactive)

SMILES: CCOc1ccccc1C(=O)N(Cc1cccs1)C1CCS(=O)(=O)C1 (stereo unspecified)
- AC50: > 42 µM (inactive)

SMILES: Cc1ccccc1-n1c(-c2cccnc2)n[nH]c1=S
- AC50: > 42 µM (inactive)

SMILES: COc1ccc(C(=O)CSc2nnc(CNC(=O)c3ccccc3)n2C)cc1
- AC50: > 42 µM (inactive)

SMILES: CCOc1ccc(C(=O)Nc2ccc(CN3CCOCC3)cc2)cc1Br
- AC50: 41.9 µM

SMILES: CS(=O)(=O)N1CCC(Oc2ccccc2C(=O)N2CCNC(=O)C2)CC1
- AC50: > 42 µM (inactive)

SMILES: CCC(C)NC(=O)CSc1nnc(-c2cc(-c3ccc(C)cc3)nc3ccccc23)n1N (stereo unspecified)
- AC50: > 42 µM (inactive)

SMILES: C=CCNC(=O)NC(=O)COC(=O)/C(C#N)=C/c1cc(C)n(CC(C)C)c1C
- AC50: > 42 µM (inactive)

SMILES: O=c1[nH]c(O)c(N=Nc2cc([N+](=O)[O-])ccc2O)c(=O)[nH]1
- AC50: > 42 µM (inactive)

SMILES: O=c1/c(=C/c2ccco2)sc2nc(-c3ccccc3Br)nn12
- AC50: > 42 µM (inactive)

SMILES: N#CC1=C(N)Nc2ncnn2C1c1ccc([N+](=O)[O-])cc1 (stereo unspecified)
- AC50: > 42 µM (inactive)

SMILES: O=C(O)c1ccc(S(=O)(=O)N2CCN(c3ccccn3)CC2)cc1
- AC50: > 42 µM (inactive)

SMILES: Cn1c(CN2CCOCC2)nnc1SCC(=O)Nc1cc(Cl)ccc1Cl
- AC50: > 42 µM (inactive)

SMILES: CSc1ncc2ncn(C3OC(CO)C(O)C3O)c2n1 (stereo unspecified)
- AC50: > 42 µM (inactive)

SMILES: N#Cc1c(Cn2cncn2)nc(=O)n(-c2ccc(Cl)cc2)c1N
- AC50: > 42 µM (inactive)

SMILES: CCc1ccc2[nH]c(=O)c(C(c3nnnn3Cc3ccccc3)N3CCOCC3)cc2c1 (stereo unspecified)
- AC50: > 42 µM (inactive)

SMILES: Clc1cnc(Oc2ccc(Oc3ncc(Cl)cc3Cl)cc2)c(Cl)c1
- AC50: > 42 µM (inactive)

SMILES: CC(OC(=O)c1cnccn1)C(=O)c1ccccc1 (stereo unspecified)
- AC50: > 42 µM (inactive)

SMILES: CC(C)NC(=O)CCCc1cn(C)c2ccccc12
- AC50: > 42 µM (inactive)

SMILES: O=c1c2ccccc2ncn1-c1ccc(Cl)cc1Cl
- AC50: > 42 µM (inactive)

SMILES: O=C(NCc1ccco1)c1ccc(Br)c(S(=O)(=O)N2CCCCC2)c1
- AC50: > 42 µM (inactive)

SMILES: CCOC(=O)c1oc2ccccc2c1COC(=O)CNC(=O)c1cccc(C)c1
- AC50: > 42 µM (inactive)

SMILES: Cc1cc(C(=O)N/N=C/c2ccc3c(c2)OCO3)c2ccccc2n1
- AC50: > 42 µM (inactive)

SMILES: c1ccc2c(c1)[nH]c1c(N3CCN(C4CCCCC4)CC3)ncnc12
- AC50: 39.8 µM

SMILES: O=C(OCCCCOC(=O)c1ccccc1)c1ccccc1
- AC50: > 42 µM (inactive)

SMILES: CC(=O)c1c(N)[nH]c(-c2ccccc2)nc1=S
- AC50: > 42 µM (inactive)

SMILES: CC(=O)NCCc1nc2cc(NC(=O)c3ccc(F)cc3)ccc2n1C
- AC50: > 42 µM (inactive)

SMILES: Cc1sc2nc(CN3CCCC3)nc(NCc3ccncc3)c2c1C
- AC50: > 42 µM (inactive)

SMILES: Cc1ccc(NC(=O)CN2CCN(CCN=CC3=C(O)CC(C)(C)CC3=O)CC2)cc1
- AC50: > 42 µM (inactive)

SMILES: COc1ccc(NC(=S)Nc2ccccc2OC)c(OC)c1
- AC50: > 42 µM (inactive)

SMILES: O=[N+]([O-])c1cccc(-c2nc3ccc([N+](=O)[O-])cc3[nH]2)c1
- AC50: > 42 µM (inactive)

SMILES: Cc1cc(S(=O)(=O)N2CCCC(N3CCOCC3)C2)c(C)cc1Cl (stereo unspecified)
- AC50: > 42 µM (inactive)

SMILES: COc1ccc(C(=O)O)cc1S(=O)(=O)NCCN(C)C
- AC50: > 42 µM (inactive)

SMILES: OC(c1ccccc1)(C1CCCCC1)C(CN1CCOCC1)c1ccccc1 (stereo unspecified)
- AC50: > 42 µM (inactive)

SMILES: Cc1ccc(-c2ccc(/C=N/n3cnnc3)o2)cc1
- AC50: > 42 µM (inactive)

SMILES: CC1=C(C)CS(=O)N(S(=O)(=O)c2ccc(Cl)cc2)C1 (stereo unspecified)
- AC50: 12.1 µM

SMILES: COc1ccc(S(=O)(=O)Cc2ccc(C(=O)NCc3cccs3)o2)cc1
- AC50: > 42 µM (inactive)

SMILES: CCOC(=O)C1=C(N)c2ccccc2CC1C1CCCC1 (stereo unspecified)
- AC50: > 42 µM (inactive)

SMILES: CC(Oc1ccc([N+](=O)[O-])cc1)C(=O)NCCCN1CCOCC1 (stereo unspecified)
- AC50: > 42 µM (inactive)

SMILES: COc1ccccc1NC(=O)c1nn(C)cc1Br
- AC50: > 42 µM (inactive)

SMILES: O=C(Nc1nnc(-c2ccco2)o1)c1ccc(S(=O)(=O)N2CCCC2)cc1
- AC50: > 42 µM (inactive)

SMILES: CCc1nnc(NC(=O)c2cccc(S(=O)(=O)N3CCN(c4ccccc4)CC3)c2)s1
- AC50: > 42 µM (inactive)

SMILES: CCOC(=O)CNC(=O)c1cccnc1
- AC50: > 42 µM (inactive)

SMILES: CC1(OC(=O)C2CCCC2)C(=O)C=C2C=C(c3ccsc3)OC=C2C1=O (stereo unspecified)
- AC50: > 42 µM (inactive)

SMILES: Cn1c(=O)nc2n(Cc3ccccc3)c3ccccc3cc-2c1=O
- AC50: > 42 µM (inactive)

SMILES: CC1CC(C)(C)N(C(=O)CN2C(=O)CCC2=O)c2ccccc21 (stereo unspecified)
- AC50: > 42 µM (inactive)

SMILES: CC(C)CCNC(=O)Cn1c(=O)oc2cc(S(=O)(=O)N3CC(C)CC(C)C3)ccc21 (stereo unspecified)
- AC50: > 42 µM (inactive)

SMILES: Cc1ccc(NC(=O)CN2C(=O)COc3ccc(S(=O)(=O)N4CCOCC4)cc32)cc1F
- AC50: > 42 µM (inactive)

SMILES: O=C(O)CC(NC(=O)c1ccc2c(c1)OCO2)c1cccc([N+](=O)[O-])c1 (stereo unspecified)
- AC50: > 42 µM (inactive)

SMILES: COc1ccc(C(=O)CC(=O)C(=O)Nc2ccc(C)c(Cl)c2)cc1
- AC50: > 42 µM (inactive)

SMILES: CCOC(=O)c1sc(NC(=O)CSc2n[nH]c(-c3ccc(Cl)cc3Cl)n2)c(C#N)c1C
- AC50: > 42 µM (inactive)

SMILES: C[C@@]12C(=O)Nc3ccc(Br)cc3C(=O)N1[C@H]1c3ccccc3OC[C@@H]1[C@@H]2c1ccccc1
- AC50: > 42 µM (inactive)

SMILES: CC(C)c1ccc(-c2cc(C(=O)N3CCOCC3)c3cc(Br)ccc3n2)cc1
- AC50: > 42 µM (inactive)

SMILES: CCOC(=O)C1(Cc2cccc(Cl)c2)CCCN(C(=O)CCOC)C1 (stereo unspecified)
- AC50: > 42 µM (inactive)
